Test results taken from ChEMBL document CHEMBL3763138, “Synthesis and bioactivity of novel triazole incorporated benzothiazinone derivatives as antitubercular and antioxidant agent” (Bioorg Med Chem Lett, 2016).
≈ marks a conversion by molar mass, not a printed value.

Columns and labels:
A-431 [1] = assay: Antiproliferative activity against human A431 cells at 30 ug/ml after 48 hrs by MTT assay; format: cell-based; settings: a-431, 48 h
HeLa [2] = assay: Antiproliferative activity against human HeLa cells at 10 ug/ml after 72 hrs by MTT assay; format: cell-based
HeLa [3] = assay: Antiproliferative activity against human HeLa cells at 3 ug/ml after 72 hrs by MTT assay; format: cell-based
HeLa [4] = assay: Antiproliferative activity against human HeLa cells at 30 ug/ml after 72 hrs by MTT assay; format: cell-based
[5] = Cytotoxicity against human A431 cells assessed as growth inhibition after 48 hrs by MTT assay; format: cell-based, A-431
[6] = tested on: Mycobacterium tuberculosis; assay: Antitubercular activity against Mycobacterium tuberculosis H37Ra ATCC 25177 at 10 ug/ml by XTT Reduction Menadione Assay; format: functional
HeLa [7] = assay: (§1) Cytotoxicity against human HeLa cells assessed as growth inhibition after 72 hrs by MTT assay; format: cell-based; settings: hela, 72 h
[8] = as §1; format: cell-based; settings: HeLa cells
A-431 [9] = assay: Antiproliferative activity against human A431 cells at 10 ug/ml after 48 hrs by MTT assay; format: cell-based; settings: a-431, 48 h
A-431 [10] = assay: Antiproliferative activity against human A431 cells at 3 ug/ml after 48 hrs by MTT assay; format: cell-based; settings: a-431, 48 h
A549 [11] = assay: Antiproliferative activity against human A549 cells at 3 ug/ml after 48 hrs by MTT assay; format: cell-based; settings: a549, 48 h
[12] = tested on: Mycobacterium tuberculosis; assay: Antitubercular activity against Mycobacterium tuberculosis H37Ra ATCC 25177 at 30 ug/ml by XTT Reduction Menadione Assay; format: functional
[13] = tested on: Mycobacterium tuberculosis; assay: Antitubercular activity against Mycobacterium tuberculosis H37Ra ATCC 25177 by XTT Reduction Menadione Assay; format: functional, organism-based
A549 [14] = assay: Antiproliferative activity against human A549 cells at 10 ug/ml after 48 hrs by MTT assay; format: cell-based; settings: a549, 48 h
[15] = Antioxidant activity assessed as DPPH radical scavenging activity by spectrophotometric assay; format: physicochemical
[16] = (§2) Cytotoxicity against human A549 cells assessed as growth inhibition after 48 hrs by MTT assay; format: cell-based; settings: A549 cells
A549 [17] = assay: as §2; format: cell-based; settings: a549, 48 h
A549 [18] = assay: Antiproliferative activity against human A549 cells at 30 ug/ml after 48 hrs by MTT assay; format: cell-based; settings: a549, 48 h
[19] = tested on: Mycobacterium tuberculosis; assay: Antitubercular activity against Mycobacterium tuberculosis H37Ra ATCC 25177 at 3 ug/ml by XTT Reduction Menadione Assay; format: functional
[20] = Selectivity index, ratio of GI50 for human HeLa cells to MIC for Mycobacterium bovis BCG ATCC 35743; format: toxicity, cell-based; settings: pooled result: one value given for 3 cell lines, strains, targets or settings, read-out: Selectivity Index
[21] = Selectivity index, ratio of GI50 for human HeLa cells to MIC for Mycobacterium tuberculosis H37Ra ATCC 25177; format: toxicity, cell-based; settings: pooled result: one value given for 3 cell lines, strains, targets or settings, read-out: Selectivity Index

SMILES	Activity (A-431 [1])	Activity (HeLa [2])	Activity (HeLa [3])	Activity (HeLa [4])	GI50 at 48 h [5]	inhibition at 10 µg/mL [6]	GI50 (HeLa [7])	GI50 at 72 h [8]	Activity (A-431 [9])	Activity (A-431 [10])	Activity (A549 [11])	inhibition at 30 µg/mL [12]	IC50 [13]	MIC [13]	Activity (A549 [14])	IC50 [15]	GI50 at 48 h [16]	MIC (A549 [17])	Activity (A549 [18])	inhibition at 3 µg/mL [19]	other results
O=C1CSc2ccccc2N1Cc1cn(-c2cccc([N+](=O)[O-])c2)nn1	29.7%	13.3%	11.9%	37.5%	> 30 µg/mL	8.7%	> 30 µg/mL	> 30 µg/mL	25.4%	17.2%	12.32%	1.2%	> 30 µg/mL	> 30 µg/mL	0.19%	47.11 µg/mL (≈ 128 µM)	> 30 µg/mL	> 30 µg/mL	22.02%	25.7%	–
O=C1CSc2ccccc2N1Cc1cn(Cc2cccc([N+](=O)[O-])c2)nn1	15.6%	-3%	0%	20.1%	> 30 µg/mL	48.9%	> 30 µg/mL	> 30 µg/mL	16.5%	13.9%	-9.71%	60.2%	12.4 µg/mL (≈ 32.4 µM)	> 30 µg/mL	0%	34.12 µg/mL (≈ 89.5 µM)	> 30 µg/mL	> 30 µg/mL	-11.78%	34.8%	–
O=C1CSc2ccccc2N1Cc1cn(Cc2ccc([N+](=O)[O-])cc2)nn1	44.7%	53.2%	36.5%	55.5%	> 30 µg/mL	52.9%	> 30 µg/mL	> 30 µg/mL	12.9%	10.8%	0%	70.6%	9.2 µg/mL (≈ 24.1 µM)	> 30 µg/mL	17.56%	27.4 µg/mL (≈ 71.8 µM)	> 30 µg/mL	> 30 µg/mL	8.43%	9.8%	selectivity ratio [20]: 1.02; selectivity ratio [21]: 1
O=C1CSc2ccccc2N1Cc1cn(Cc2ccc(F)cc2)nn1	44.5%	46.3%	45.1%	51.3%	> 30 µg/mL	77.5%	> 30 µg/mL	28.6 µg/mL (≈ 80.8 µM)	31.1%	17.3%	12.32%	91.3%	1.24 µg/mL (≈ 3.5 µM)	29.2 µg/mL (≈ 82.5 µM)	4.1%	14.15 µg/mL (≈ 39.9 µM)	> 30 µg/mL	> 30 µg/mL	30.9%	73.8%	selectivity ratio [20]: 1.09; selectivity ratio [21]: 1.02
O=C1CSc2ccccc2N1Cc1cn(Cc2ccc(Cl)cc2)nn1	61.5%	29.6%	41.9%	45.1%	27.3 µg/mL (≈ 73.6 µM)	75.3%	> 30 µg/mL	> 30 µg/mL	40.9%	35%	3.6%	65.8%	2.67 µg/mL (≈ 7.2 µM)	> 30 µg/mL	4.35%	44.29 µg/mL (≈ 119 µM)	29.9 µg/mL (≈ 80.7 µM)	> 30 µg/mL	51.91%	52.1%	–
O=C1CSc2ccccc2N1Cc1cn(-c2ccc([N+](=O)[O-])cc2)nn1	0%	-0.9%	13.3%	35.8%	> 30 µg/mL	0.3%	> 30 µg/mL	> 30 µg/mL	0%	0%	33.22%	28.5%	> 30 µg/mL	> 30 µg/mL	24.73%	44.29 µg/mL (≈ 121 µM)	> 30 µg/mL	> 30 µg/mL	38.71%	24.2%	–
O=C1CSc2ccccc2N1Cc1cn(Cc2ccc(Br)cc2)nn1	35.5%	32.9%	40.4%	41.3%	> 30 µg/mL	38.4%	> 30 µg/mL	> 30 µg/mL	4%	8.6%	-5.96%	49.8%	> 30 µg/mL	> 30 µg/mL	-1.37%	14.14 µg/mL (≈ 34 µM)	> 30 µg/mL	> 30 µg/mL	44.78%	58%	–
O=C1CSc2ccccc2N1Cc1cn(Cc2ccccc2)nn1	-10.8%	8.8%	0%	39.6%	> 30 µg/mL	59.3%	> 30 µg/mL	> 30 µg/mL	-37.2%	0%	-7.85%	82.2%	9.11 µg/mL (≈ 27.1 µM)	> 30 µg/mL	-9.82%	36.26 µg/mL (≈ 108 µM)	> 30 µg/mL	> 30 µg/mL	25.91%	-15.4%	–
O=C1CSc2ccccc2N1Cc1cn(Cc2cccc(Cl)c2)nn1	4.4%	43.4%	52.3%	45.7%	> 30 µg/mL	66.6%	> 30 µg/mL	> 30 µg/mL	-13.7%	-6.3%	6.38%	94.2%	8.03 µg/mL (≈ 21.7 µM)	27.3 µg/mL (≈ 73.7 µM)	3.31%	45.63 µg/mL (≈ 123 µM)	> 30 µg/mL	> 30 µg/mL	19.04%	8.6%	selectivity ratio [20]: 1.05; selectivity ratio [21]: 1.1
O=C1CSc2ccccc2N1Cc1cn(Cc2ccccc2Cl)nn1	31.4%	38.6%	48.1%	55.9%	> 30 µg/mL	74.9%	> 30 µg/mL	> 30 µg/mL	29.6%	15.4%	4.19%	37.8%	> 30 µg/mL	> 30 µg/mL	-8.41%	16.35 µg/mL (≈ 44.1 µM)	> 30 µg/mL	> 30 µg/mL	23.34%	41.9%	–
Cc1cc(C(C)(C)C)c(O)c(C(C)(C)C)c1 [BUTYLATED HYDROXYTOLUENE]	–	–	–	–	–	–	–	–	–	–	–	–	–	–	–	16.47 µg/mL (≈ 74.7 µM)	–	–	–	–	–
NNC(=O)c1ccncc1 [ISONIAZID]	–	–	–	–	–	–	–	–	–	–	–	–	0.0025 µg/mL (≈ 0.0182 µM)	0.075 µg/mL (≈ 0.547 µM)	–	–	–	–	–	–	selectivity ratio [20]: 2220; selectivity ratio [21]: 1330
CC(=O)O[C@H]1C(=O)[C@@]2(C)[C@H]([C@H](OC(=O)c3ccccc3)[C@]3(O)C[C@H](OC(=O)[C@H](O)[C@@H](NC(=O)c4ccccc4)c4ccccc4)C(C)=C1C3(C)C)[C@]1(OC(C)=O)CO[C@@H]1C[C@@H]2O [PACLITAXEL]	–	–	–	–	0.0023 µg/mL (≈ 0.00269 µM)	–	–	0.14 µg/mL (≈ 0.164 µM)	–	–	–	–	–	–	–	–	< 0.0023 µg/mL	0.039 µg/mL (≈ 0.0457 µM)	–	–	–
CO[C@H]1/C=C/O[C@@]2(C)Oc3c(C)c(O)c4c(O)c(c(/C=N/N5CCN(C)CC5)c(O)c4c3C2=O)NC(=O)/C(C)=C\C=C\[C@H](C)[C@H](O)[C@@H](C)[C@@H](O)[C@@H](C)[C@H](OC(C)=O)[C@@H]1C [RIFAMPIN]	–	–	–	–	–	–	–	–	–	–	–	–	–	0.043 µg/mL (≈ 0.0523 µM)	–	–	–	–	–	–	selectivity ratio [20]: 2440; selectivity ratio [21]: 2330
